Data taken from patent US9840500B2, “Compounds as dual inhibitors of histone methyltransferases and DNA methyltransferases” (FUNDACIÓN PARA LA INVESTIGACIÓN MÉDICA APLICADA, priority 2014, dated 2017).

Key:
OCI-Ly3 = test: Cell proliferation assay, OCI-Ly3 (ABC-DLBCL); format: cell-based; settings: Homo sapiens, 48 hours of treatment, Table 3
Procedure: (§1) Cell proliferation was analyzed after 48 hours of in vitro treatment using the CellTiter 96 Aqueous One Solution Cell Proliferation Assay (Promega, Madison, Wis.). This is a colorimetric method for determining the number of viable cells in proliferation.
(§2) For the assay, suspension cells were cultured by triplicate at a density of 1×10^6 cells/ml in 96-well plates (100.000 cells/well, 100 μl/well), except for OCILY-3 and OCILY-10 cell lines which were cultured at a density of 0.5×10^6 cells/ml (50.000 cells/well, 100 μl/well) and for HepG2, Hep3B and PLC/PRF/5 cell ines which were cultured at a density of 3000 cells/well, 100 μl/well). Adherent cells were obtained from 80-90% confluent flasks and 100 μl of cells were seeded at a density of 5000 cells/well in 96-well plates by triplicate. Before addition of the compounds, adherent cells were allowed to attach to the bottom of the wells for 12 hours. In all cases, only the 60 inner wells were used to avoid any border effects.
(§3) After 48 hours of treatment, plates with suspension cells were centrifuged at 800 g for 10 minutes and medium was removed. The plates with adherent cells were flicked to remove medium. Then, cells were incubated with 100 ul/well of medium and 20 ul/well of CellTiter 96 Aqueous One Solution reagent. After 1-3 hours of incubation at 37° C., absorbance was measured at 490 nm in a 96-well plate reader. The background absorbance was measured in wells with only cell line medium and solution reagent. Data was calculated as a percentage of total absorbance of treated cell/absorbance of non treated cells.

PLC/PRF/5 = test: Cell proliferation assay, PLC/PRF/5 (HCC); format: cell-based; settings: Homo sapiens, 48 hours of treatment, Table 3
Procedure: as §1, §2, §3

HepG2 = test: Cell proliferation assay, HepG2 (HCC); format: cell-based; settings: Homo sapiens, 48 hours of treatment, Table 3
Procedure: as §1, §2, §3

Hep3B = test: Cell proliferation assay, Hep3B (HCC); format: cell-based; settings: Homo sapiens, 48 hours of treatment, Table 3
Procedure: as §1, §2, §3

human G9a enzyme = biological target: T1, human G9a enzyme (Homo sapiens, UniProt Q96KQ7); test: G9a enzyme activity assay (TR-FRET); format: biochemical
T1 sequence (Q96KQ7 1-1210): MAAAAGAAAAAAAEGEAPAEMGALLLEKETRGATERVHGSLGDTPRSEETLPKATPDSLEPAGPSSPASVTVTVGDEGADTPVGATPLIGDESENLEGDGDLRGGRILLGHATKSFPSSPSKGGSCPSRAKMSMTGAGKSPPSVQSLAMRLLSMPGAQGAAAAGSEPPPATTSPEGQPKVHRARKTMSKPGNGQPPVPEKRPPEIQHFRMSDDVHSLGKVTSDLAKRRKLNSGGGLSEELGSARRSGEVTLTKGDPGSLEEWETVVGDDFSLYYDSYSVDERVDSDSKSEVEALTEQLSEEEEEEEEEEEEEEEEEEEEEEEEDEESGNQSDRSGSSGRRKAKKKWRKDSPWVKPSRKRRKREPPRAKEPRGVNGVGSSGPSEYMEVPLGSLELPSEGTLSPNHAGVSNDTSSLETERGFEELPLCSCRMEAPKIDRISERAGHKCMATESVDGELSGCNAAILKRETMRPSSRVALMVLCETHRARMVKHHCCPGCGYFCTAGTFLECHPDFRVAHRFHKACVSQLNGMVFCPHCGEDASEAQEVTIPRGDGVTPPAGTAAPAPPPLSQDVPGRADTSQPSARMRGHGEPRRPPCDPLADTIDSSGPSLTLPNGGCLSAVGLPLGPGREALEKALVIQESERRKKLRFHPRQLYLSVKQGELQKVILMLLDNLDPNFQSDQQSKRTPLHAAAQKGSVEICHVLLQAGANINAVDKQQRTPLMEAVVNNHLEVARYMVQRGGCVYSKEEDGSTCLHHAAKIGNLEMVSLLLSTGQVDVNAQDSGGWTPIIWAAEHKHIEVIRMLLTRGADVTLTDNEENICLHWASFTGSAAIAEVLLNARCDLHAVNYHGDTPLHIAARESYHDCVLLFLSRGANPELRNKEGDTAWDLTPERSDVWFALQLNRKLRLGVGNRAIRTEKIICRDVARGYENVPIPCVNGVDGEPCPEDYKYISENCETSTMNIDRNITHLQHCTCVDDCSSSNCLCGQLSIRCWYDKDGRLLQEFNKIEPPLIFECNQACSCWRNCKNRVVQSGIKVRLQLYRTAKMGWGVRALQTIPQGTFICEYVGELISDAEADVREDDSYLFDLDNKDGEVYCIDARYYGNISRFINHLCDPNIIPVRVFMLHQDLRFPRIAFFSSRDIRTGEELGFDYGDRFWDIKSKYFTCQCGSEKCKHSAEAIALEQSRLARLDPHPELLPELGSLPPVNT
Procedure: The biochemical assay to measure G9a enzyme activity relies on time-resolved fluorescence energy transfer (TR-FRET) between europium cryptate (donor) and XL665 (acceptor). […] The human G9a enzyme expressed in a baculovirus infected Sf9 cell expression system was obtained from BPS Biosciences (Cat. #51001). […] Final percentage of DMSO was 0.5%. • 2 μl of 1 nM G9a enzyme diluted in assay buffer. […] Final concentration 150 nM. • Then, add 5 μl of streptavidin XL665 beads. Final concentration of 16 μM. • Read the plate after 1 hour of incubation at room temperature.
(§4) For each well, fluorescence was measured at 620 nm and 665 nm. A ratio (665 nm/620 nm) was then calculated in order to minimize medium interferences. Positive control was obtained in the presence of the vehicle of the compounds. Negative control was obtained in the absence of G9a enzyme activity. Calculated IC50 values were determined using GraphPrism using 4-parameters inhibition curve.

CEMO-1 = test: Cell proliferation assay, CEMO-1 (ALL); format: cell-based, human; settings: Homo sapiens; 48 hours of treatment; Table 3
Procedure: as §1, §2, §3

DNMT1 = DNMT1 (Homo sapiens, UniProt P26358); test: DNMT1 enzyme activity assay (TR-FRET, EPIgeneous methyltransferase assay); format: biochemical
Chain of DNMT1 (P26358 whole entry): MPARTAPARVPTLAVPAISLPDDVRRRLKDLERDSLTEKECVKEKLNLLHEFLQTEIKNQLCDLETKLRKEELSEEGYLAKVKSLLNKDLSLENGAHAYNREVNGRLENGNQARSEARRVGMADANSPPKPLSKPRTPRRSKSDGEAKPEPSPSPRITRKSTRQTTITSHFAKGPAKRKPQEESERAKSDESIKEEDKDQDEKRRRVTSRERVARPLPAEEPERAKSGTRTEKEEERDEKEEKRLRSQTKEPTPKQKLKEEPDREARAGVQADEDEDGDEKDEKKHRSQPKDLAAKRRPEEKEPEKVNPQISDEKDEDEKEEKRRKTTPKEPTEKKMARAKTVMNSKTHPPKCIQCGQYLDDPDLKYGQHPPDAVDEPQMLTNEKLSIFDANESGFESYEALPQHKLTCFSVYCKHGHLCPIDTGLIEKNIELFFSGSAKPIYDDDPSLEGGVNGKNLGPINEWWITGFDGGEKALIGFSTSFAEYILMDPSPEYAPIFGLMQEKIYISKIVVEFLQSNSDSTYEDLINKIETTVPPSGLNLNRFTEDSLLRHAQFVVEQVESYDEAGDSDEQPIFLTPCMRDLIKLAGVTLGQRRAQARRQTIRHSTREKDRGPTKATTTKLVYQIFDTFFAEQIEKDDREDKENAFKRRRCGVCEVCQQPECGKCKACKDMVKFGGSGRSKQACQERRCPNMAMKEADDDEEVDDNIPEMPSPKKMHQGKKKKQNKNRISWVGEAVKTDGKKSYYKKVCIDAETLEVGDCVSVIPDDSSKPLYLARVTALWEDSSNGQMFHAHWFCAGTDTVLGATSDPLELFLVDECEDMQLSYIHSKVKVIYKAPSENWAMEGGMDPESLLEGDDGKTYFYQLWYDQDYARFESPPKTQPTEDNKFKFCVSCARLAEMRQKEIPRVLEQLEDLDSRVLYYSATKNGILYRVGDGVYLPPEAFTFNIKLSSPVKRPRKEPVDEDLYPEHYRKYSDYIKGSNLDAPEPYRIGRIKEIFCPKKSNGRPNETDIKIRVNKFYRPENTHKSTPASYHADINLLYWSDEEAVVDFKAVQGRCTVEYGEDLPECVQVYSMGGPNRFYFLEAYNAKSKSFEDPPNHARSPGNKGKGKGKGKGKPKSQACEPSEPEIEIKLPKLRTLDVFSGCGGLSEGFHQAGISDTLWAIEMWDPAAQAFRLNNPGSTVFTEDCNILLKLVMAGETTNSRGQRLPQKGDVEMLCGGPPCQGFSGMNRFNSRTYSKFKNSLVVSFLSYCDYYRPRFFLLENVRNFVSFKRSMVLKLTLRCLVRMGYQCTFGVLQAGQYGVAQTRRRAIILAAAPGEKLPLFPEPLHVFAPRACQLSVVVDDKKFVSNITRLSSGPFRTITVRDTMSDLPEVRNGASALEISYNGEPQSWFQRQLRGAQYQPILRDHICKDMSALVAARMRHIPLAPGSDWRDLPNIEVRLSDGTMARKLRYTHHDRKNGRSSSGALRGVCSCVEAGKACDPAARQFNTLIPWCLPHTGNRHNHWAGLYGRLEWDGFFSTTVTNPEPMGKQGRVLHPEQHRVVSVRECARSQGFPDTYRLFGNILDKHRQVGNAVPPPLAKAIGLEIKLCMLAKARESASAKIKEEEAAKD
Procedure: The biochemical assay to measure DNMT1 enzyme activity relies on time-resolved fluorescence energy transfer (TR-FRET) between lumi4-Tb (donor) and d2 (acceptor) using the EPIgeneous methyltransferase assay (CisBio Cat#62SAHPEB). […] TR-FRET signal is inversely proportional to the concentration of SAH, product of DNMT1 enzyme activity, in the sample.
The human DNMT1 was obtained from Reaction Biology Corp. (Cat# DMT-21-124). […] Final percentage of DMSO was 0.5%. • 2 μl of 1 nM DNMT1 enzyme diluted in assay buffer.
as §4

Compound	GI50 (OCI-Ly3)	GI50 (PLC/PRF/5)	GI50 (HepG2)	GI50 (Hep3B)	IC50 (human G9a enzyme)	GI50 (CEMO-1)	IC50 (DNMT1)
COc1cc2c(NC3CCN(C)CC3)cc(-c3ccc(C)o3)nc2cc1OC1CC2(C1)CN(C)C2 [Compound 17-01, 6-methoxy-7-[(2-methyl-2-azaspiro[3.3]heptan-6-yl)oxy]-2-(5-methyl-2-furyl)-N-(1-methyl-4-piperidyl)quinolin-4-amine; 2,2,2-trifluoroacetic acid]	< 100 nM	100 to 1000 nM	100 to 1000 nM	100 to 1000 nM	–	–	–
COc1cc2c(NC3CCC34CCN(C)CC4)cc(-c3ccc(C)o3)nc2cc1OCCCN1CCCC1 (stereo not shown) [Compound 5-01, 6-methoxy-N-(7-methyl-7-azaspiro[3.5]nonan-3-yl)-2-(5-methyl-2-furyl)-7-(3-pyrrolidin-1-ylpropoxy)quinolin-4-amine; 2,2,2-trifluoroacetic acid]	100 to 1000 nM	–	–	–	–	–	–
COc1cc2c(NC3CCN(C)C(=O)C3)cc(-c3ccc(C)o3)nc2cc1OCCCN1CCCC1 (stereo not shown) [Compound 3-17]	100 to 1000 nM	–	–	–	–	–	–
COc1cc2c(NC3CCN(C)CC3)cc(-c3ccc(C)o3)nc2cc1OC1CC2(CNC2)C1 [Compound 16-01, 7-(2-azaspiro[3.3]heptan-6-yloxy)-6-methoxy-2-(5-methyl-2-furyl)-N-(1-methyl-4-piperidyl)quinolin-4-amine; 2,2,2-trifluoroacetic acid]	–	≤ 10000 nM	≤ 10000 nM	≤ 10000 nM	1000 to 10000 nM	1000 to 10000 nM	100 to 500 nM
COc1cc2c(NCC3CCN(C)CC3)cc(-c3ccc(C)[nH]3)nc2cc1OCCCN1CCCC1 [Compound 3-39]	–	–	–	–	< 100 nM	100 to 1000 nM	< 100 nM
COc1cc2c(NC3CCN(C)CC3)cc(-c3ccc(C)o3)nc2cc1OCC1CCNCC1 [Compound 11-01, 6-methoxy-2-(5-methyl-2-furyl)-N-(1-methyl-4-piperidyl)-7-(4-piperidylmethoxy)quinolin-4-amine; 2,2,2-trifluoroacetic acid]	< 100 nM	1000 to 10000 nM	1000 to 10000 nM	1000 to 10000 nM	–	–	–
COc1cc2c(NC3CC4(CCN(C)CC4)C3)cc(-c3ccc(C)o3)nc2cc1OCC1CCN(C)CC1 [Compound 12-03]	< 100 nM	100 to 1000 nM	100 to 1000 nM	100 to 1000 nM	–	–	–
COc1cc2c(NC3CC4(CCN(C)CC4)C3)cc(-c3ccc(C)[nH]3)nc2cc1OCCCN1CCCC1 [Compound 5-05, 6-methoxy-N-(7-methyl-7-azaspiro[3.5]nonan-2-yl)-2-(5-methyl-1H-pyrrol-2-yl)-7-(3-pyrrolidin-1-ylpropoxy)quinolin-4-amine; 2,2,2-trifluoroacetic acid]	–	–	–	–	< 100 nM	1000 to 10000 nM	100 to 500 nM
COc1cc2c(NCC3CCN(C)CC3)cc(-c3ccc(C)o3)nc2cc1OCC1CCNCC1 [Compound 11-02]	–	–	–	–	100 to 500 nM	1000 to 10000 nM	100 to 500 nM
COc1cc2c(NC3CCN(C)CC3)cc(-c3ccc(C)s3)nc2cc1OCCCN1CCCC1 [Compound 3-36]	–	–	–	–	< 100 nM	100 to 1000 nM	500 to 1000 nM
COc1cc2c(NC3CCN(C(C)C)CC3)cc(C3CCCCC3)nc2cc1OCCCN1CCCC1 [Compound 7-05, 2-cyclohexyl-N-(1-isopropyl-4-piperidyl)-6-methoxy-7-(3-pyrrolidin-1-ylpropoxy)quinolin-4-amine; 2,2,2-trifluoroacetic acid]	–	≤ 10000 nM	≤ 10000 nM	≤ 10000 nM	< 100 nM	≤ 10000 nM	500 to 1000 nM
CCc1ccc(-c2cc(NC3CC4(CCNCC4)C3)c3cc(OC)c(OCCCN4CCCC4)cc3n2)o1 [Compound 4-03, N-(7-azaspiro[3.5]nonan-2-yl)-2-(5-ethyl-2-furyl)-6-methoxy-7-(3-pyrrolidin-1-ylpropoxy)quinolin-4-amine:2,2,2-trifluoroacetic acid]	–	–	–	–	< 100 nM	1000 to 10000 nM	< 100 nM
COc1cc2c(NCC3CCCC3)cc(-c3ccc(C)o3)nc2cc1OCCCN1CCCC1 [Compound 3-14]	–	–	–	–	1000 to 10000 nM	–	1000 to 10000 nM
COc1cc2c(NC3CCN(C)CC3)cc(-c3ccc(C)[nH]3)nc2cc1OCC1CCNCC1 [Compound 11-05]	–	≤ 10000 nM	≤ 10000 nM	≤ 10000 nM	< 100 nM	≤ 10000 nM	100 to 500 nM
COc1cc2c(NC3CCN(C)CC3)cc(C3CCC(C)O3)nc2cc1OCCCN1CCCC1 (stereo not shown) [Compound 15-01, 6-methoxy-N-(1-methyl-4-piperidyl)-2-(5-methyltetrahydrofuran-2-yl)-7-(3-pyrrolidin-1-ylpropoxy)quinolin-4-amine; 2,2,2-trifluoroacetic acid]	–	–	–	–	< 100 nM	–	1000 to 10000 nM
COc1cc2c(NC3CCCC3)cc(-c3ccc(C)o3)nc2cc1OCCCN1CCCC1 [Compound 3-05]	–	–	–	–	–	100 to 1000 nM	–
CCc1ccc(-c2cc(NC3CCC34CCN(C3CC3)CC4)c3cc(OC)c(OCCCN4CCCC4)cc3n2)o1 (stereo not shown) [Compound 19-02, N-(7-cyclopropyl-7-azaspiro[3.5]nonan-3-yl)-2-(5-ethyl-2-furyl)-6-methoxy-7-(3-pyrrolidin-1-ylpropoxy)quinolin-4-amine; 2,2,2-trifluoroacetic acid]	–	–	–	–	500 to 1000 nM	–	100 to 500 nM
COc1cc2c(NC3CCN(C)CC3)cc(-c3cc4ccccc4o3)nc2cc1OCCCN1CCCC1 [Compound 3-25]	–	–	–	–	1000 to 10000 nM	–	1000 to 10000 nM
COc1cc2c(NC3CCC34CCNCC4)cc(-c3ccc(C)o3)nc2cc1OCCCN1CCCC1 (stereo not shown) [Compound 4-01, N-(7-azaspiro[3.5]nonan-3-yl)-6-methoxy-2-(5-methyl-2-furyl)-7-(3-pyrrolidin-1-ylpropoxy)quinolin-4-amine; 2,2,2-trifluoroacetic acid]	–	–	–	–	< 100 nM	–	100 to 500 nM
